Measurements reported in patent publication US20210353721A1, “METHODS AND COMPOSITIONS RELATING TO INHIBITING CARDIOVASCULAR CALCIFICATION VIA ANNEXIN A1” (THE BRIGHAM AND WOMEN'S HOSPITAL, INC., priority 2018, published 2021).

Assays:
[1] = target: dynamin-related protein 1 (DRP1) (Homo sapiens, UniProt O00429); conditions: OM; cited from earlier work
ANXA1 loading on EVs = ANXA1 loading on EVs derived from SMCs treated with mdivi-1 (western blot); type: cell-based; conditions: human SMCs in OM, 14 days
Procedure: Primary Cell Culture. Primary human coronary artery SMCs were obtained from Promocell (Heidelberg, Germany) and expanded in SMC Growth Medium 2 (Promocell) supplemented with epidermal growth factor (0.5 ng/mL), insulin (5 μg/mL) basic fibroblast growth factor- B (2 ng/mL), and 5% fetal bovine serum. Primary human VICs were obtained from human aortic valve tissue using collagenase digestion (28, 30). Tissue-derived SMCs were confirmed as alpha smooth muscle actin-positive by FACS (30). Tissue-derived VICs were confirmed as vimentin positive by immunohistochemistry (28). Cells were cultured at 37° C. (5% CO2, 90% humidity) and used between passages 1 and 5. […] Tissue non-specific alkaline phosphatase (TNAP) activity was analyzed after 14 days in culture using whole cell lysates and the TNAP enzyme activity assay (BioVision, Inc., Milpitas, Calif.), according to the manufacturer's protocol. Calcification was analyzed in cells after 21 days in culture by incubating culture wells with OsteoSense680 (1:100), near-infrared based bisphosphonate calcium tracer, for 24 hours at 37° C. […]
RNA and Protein Analysis. […] ANXA1 EVs surface localization was assessed by isolating human SMC and VIC EVs. […]

[2] = target: ANXA1 on human VIC-derived EVs (Homo sapiens, UniProt P04083); conditions: 0.48 mmol/L EDTA in PBS, 30 minutes at 37° C.
Procedure: (§1) ANXA1 EVs surface localization was assessed by isolating human SMC and VIC EVs. 10 mL of conditioned media was centrifuged at 100,000 g for 40 minutes, and the resulting EVs pellet was resuspended in PBS or PBS containing 0.48 mmol/L EDTA and incubated for 30 minutes at 37° C. EVs were pelleted a second time at 100,000 g for 40 minutes. The supernatant was collected, and the pellet was resuspended in 100 μl PBS. Samples were incubated with 6×-loading buffer (Boston Bioproducts) and boiled for 10 minutes, prior to analysis by western blot. ANXA1 released into the supernatant was assessed as being on the surface of EVs.

human ANXA1 = target: T1, human ANXA1 (Homo sapiens, UniProt P04083); experiment: Vesicle tethering assay (turbidity of extrusion generated phosphatidylserine vesicles); type: biochemical
T1 construct: purchased R&D Systems
T1 sequence (P04083 1-346): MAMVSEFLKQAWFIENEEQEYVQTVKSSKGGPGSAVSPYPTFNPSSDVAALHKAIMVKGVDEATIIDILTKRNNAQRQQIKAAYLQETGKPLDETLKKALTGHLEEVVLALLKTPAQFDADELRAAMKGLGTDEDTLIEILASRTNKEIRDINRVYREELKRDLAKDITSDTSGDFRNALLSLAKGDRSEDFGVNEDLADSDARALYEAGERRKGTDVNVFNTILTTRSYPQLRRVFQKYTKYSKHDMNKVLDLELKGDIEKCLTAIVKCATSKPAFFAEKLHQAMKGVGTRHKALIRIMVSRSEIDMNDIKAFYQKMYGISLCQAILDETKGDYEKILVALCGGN
Procedure: Vesicle Tethering Assay. Vesicle tethering was assessed by using a previously reported protocol (19) with modifications to adjust to a 96-well plate reader format. Large unilaminar vesicles of ˜100 nm in diameter were generated by filter extrusion. Briefly, 2.5 mg of phosphatidylserine (Avanti Polar Lipids) was solubilized in 1 mL of buffer containing: 10 mmol/L Hepes (Sigma, St. Louis, Mo.), 100 mmol/L NaCl (Sigma), 100 μmon ethylenediaminetetraacetic acid (Boston BioProducts, Ashland, Mass.), pH 6. The lipid mixture was run through an extruder containing 0.1 μm polycarbonate membranes (Avanti Polar Lipids) ten times, during which point the lipid mixture went from cloudy to clear in appearance. Vesicles were assessed for correct size and abundance prior to use by NanoSight nanoparticle tracking analysis. […] 27 jd of extrusion generated vesicles were added to each well and vesicle aggregation was measured at wavelength 350 on a SpectraMax M5 96-well plate reader (Molecular Devices, San Jose, Calif.). For calcium chelation, 0.48 mmol/L ethylenediaminetetraacetic acid was incubated with 1 μg human ANXA1 protein for five minutes at room temperature prior to adding the extrusion generated vesicles, after which the reaction was carried out for 20 minutes and then aggregation was determined on a plate reader. […]

[3] = target: ANXA1 on human SMC-derived EVs (Homo sapiens, UniProt P04083); conditions: 0.48 mmol/L EDTA in PBS, 30 minutes at 37° C.
Procedure: as §1

[4] = Annexin vesicle binding (confocal, swelling generated phosphatidylserine vesicles); conditions: 2 μg ANXA1-GFP, 1 mmol/L CaCl2, five minutes
Procedure: Annexin Vesicle Binding. Giant unilamellar vesicles were generated using a previously described protocol (50) with some modifications. Briefly, for the confocal-based ANXA1 vesicle binding assay, 12 mm diameter cover glass circles were coated with 5% polyvinyl alcohol (Millipore, Burlington, Mass.) in water and left to dry overnight. Dried slides were then coated with 20 μl of 10 mg/mL phosphatidylserine (Avanti Polar Lipids, Alabaster, Ala.) in chloroform containing 0 1% DiR′; DiIC18(7) 1,1′-Dioctadecyl-3,3,3′,3′-Tetramethylindotricarbocyanine Iodide) (Fisher Scientific) and dried under vacuum. 1 mL of tris buffer (pH 6) was added to cover the coated cover glass circle in a 24-well plate, and giant unilaminar vesicles were formed by swelling at room temperature for 1 hour. Vesicles were detached from the cover glass by gently tapping the plate directly beneath the slide. ANXA1 tagged green fluorescent protein (ANXA1-GFP) was obtained by transfecting HEK-293 cells (ATCC, Manassas, Va.) with human ANXA1-GFP plasmid (OriGene, Rockville, Md., #RG201569). […] GFP laser settings were adjusted such that no GFP signal was detected in samples without ANXA1-GFP added.

Sequence of dynamin-related protein 1 (DRP1) (O00429 whole entry): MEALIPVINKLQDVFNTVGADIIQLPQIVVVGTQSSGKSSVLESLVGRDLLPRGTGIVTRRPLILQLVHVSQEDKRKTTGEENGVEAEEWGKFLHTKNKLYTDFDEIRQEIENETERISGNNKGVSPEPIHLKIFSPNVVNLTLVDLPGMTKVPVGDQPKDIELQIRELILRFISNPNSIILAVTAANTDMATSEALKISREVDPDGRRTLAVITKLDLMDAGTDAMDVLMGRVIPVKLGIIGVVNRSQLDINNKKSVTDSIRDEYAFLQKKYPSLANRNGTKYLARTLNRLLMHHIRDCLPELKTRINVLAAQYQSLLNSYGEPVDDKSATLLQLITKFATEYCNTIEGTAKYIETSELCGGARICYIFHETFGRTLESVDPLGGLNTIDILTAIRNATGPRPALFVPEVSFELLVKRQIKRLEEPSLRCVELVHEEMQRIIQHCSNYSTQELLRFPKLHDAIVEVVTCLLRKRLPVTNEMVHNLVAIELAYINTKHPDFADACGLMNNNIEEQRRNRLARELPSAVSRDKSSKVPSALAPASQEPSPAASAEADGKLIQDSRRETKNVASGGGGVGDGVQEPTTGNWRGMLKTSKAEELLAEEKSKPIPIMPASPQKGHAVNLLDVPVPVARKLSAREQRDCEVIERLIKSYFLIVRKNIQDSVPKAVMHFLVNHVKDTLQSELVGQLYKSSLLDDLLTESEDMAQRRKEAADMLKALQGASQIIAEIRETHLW

COc1cc(-n2c(S)nc3ccccc3c2=O)c(Cl)cc1Cl [mdivi-1]
SMC and VIC calcification [1]: suppressed | intracellular calcium storage [1]: increased | mitochondrial fragmentation [1]: reduced | increased ANXA1 loading on EVs in OM (ANXA1 loading on EVs): suppressed

O=C(O)CN(CCN(CC(=O)O)CC(=O)O)CC(=O)O [EDTA, ethylenediaminetetraacetic acid]
ANXA1 release from EVs [2]: increased | ANXA1-mediated vesicle aggregation (human ANXA1; 0.48 mmol/L EDTA, 1 μg human ANXA1 protein, 20 minutes): attenuated | ANXA1 release from EVs [3]: increased

B1: human ANXA1 protein: recombinant human ANXA1 (R&D Systems) (protein)
chain: AMVSEFLKQAWFIENEEQEYVQTVKSSKGGPGSAVSPYPTFNPSSDVAALHKAIMVKGVDEATIIDILTKRNNAQRQQIKAAYLQETGKPLDETLKKALTGHLEEVVLALLKTPAQFDADELRAAMKGLGTDEDTLIEILASRTNKEIRDINRVYREELKRDLAKDITSDTSGDFRNALLSLAKGDRSEDFGVNEDLADSDARALYEAGERRKGTDVNVFNTILTTRSYPQLRRVFQKYTKYSKHDMNKVLDLELKGDIEKCLTAIVKCATSKPAFFAEKLHQAMKGVGTRHKALIRIMVSRSEIDMNDIKAFYQKMYGISLCQAILDETKGDYEKILVALCGGN
vesicle aggregation (turbidity) (human ANXA1; 0 up to 5 μg recombinant ANXA1, 1 mmol/L CaCl2, ~150 nm phosphatidylserine vesicles): time- and concentration-dependent vesicle aggregation

B2: GFP-tagged ANXA1: green fluorescent protein tagged human ANXA1 immunopurified from transfected HEK-293 cells (protein)
chain: T1 sequence (P04083 1-346)
modifications: left off: large carriers
notes: green fluorescent protein tagged human ANXA1 immunopurified from transfected HEK-293 cells
ANXA1 localization on tethered vesicles [4]: enriched ANXA1 at tethered vesicle membrane contact sites
